Assay results as given in patent US20250214992A1, “HIGH-PURITY COMPOUND PRODUCTION METHOD AND PURIFICATION METHOD” (SANTEN PHARMACEUTICAL CO., LTD., priority 2022, published 2025).

Test: Ames test
Format: cell-based
Settings: impurity contained in the prepared AFDX0250; found in the development stage of a pharmaceutical composition

Q: With O=C1Nc2cccnc2N(C(=O)CCl)c2ccccc21 [Compound 1, 11-(2-chloroacetyl)-5,11-dihydro-6H-pyrido[2,3-b][1,4]benzodiazepin-6-one] as the molecule, how does the Ames test result read?
A: The Ames test result was “positive”.
